Experimental data: patent US12448388B2, “PRMT5 inhibitors and uses thereof” (Gilead Sciences, Inc., priority 2023, dated 2025)

What follows are compounds tested on HCT116 MTAP-deleted cell lines (assay: Cell viability assay (CellTiter-Glo, 7 days), HCT116 MTAP-deleted). Conditions: Homo sapiens, HCT-116; cell viability, HCT116 MTAP-deleted; class symbols; read-out: CC50.
Format: cell-based
Description: Control compounds were analyzed in parallel each time for quality control. In Brief, on Day -1, a serial dilution of stock compounds in DMSO was performed using BioMek liquid handlers and dispensed using Echo acoustic dispenser into 384 well plates. Both tool compounds and sample compounds were spotted in the same plate for a dose response of PRMT5 inhibitors. Compound plates were stored as frozen until the cells were ready for seeding. […] After equilibrating the plate in room temperature, the cells were incubated for 7 days inside the sealed incubator set at 37° C. with 90% humidity and 5% CO2. On Day 7, the viability of cells was measured using a CTG assay kit (CellTitre-Glo;Promega cat no. G7573). Shortly, 40 μl per well of luminescent cell viability assay reagent were dispensed using EL460 liquid dispenser 5 μl cassette. CTG luminescence signal was measured using an EnVision plate reader (PerkinElmer) in accordance with manufacturer's instruction. […] Selectivity with * is artificially high due to limited solubility of the compound hampering accurate measurement of WT CC50.

`CC1COC2Cc3cc(C(F)(F)F)ccc3C2N1C(=O)c1cc2c(cc1F)nc(N)c1cncn12` (racemic) [Ff-85, (4-amino-7-fluoroimidazo[1,5-a]quinoxalin-8-yl)(3-methyl-7-(trifluoromethyl)-2,3,9,9a-tetrahydroindeno[2,1-b][1,4]oxazin-4(4aH)-yl)methanone] and `C[C@@H]1CC[C@@H]2Oc3cc(C(F)(F)F)ccc3[C@@H]2N1C(=O)c1cc2c(cc1F)nc(N)c1cncn12` (racemic) [Ff-100, Rac-(4-amino-7-fluoroimidazo[1,5-a]quinoxalin-8-yl)((2R,4aS,9bS)-2-methyl-7-(trifluoromethyl)-3,4,4a,9b-tetrahydrobenzofuro[3,2-b]pyridin-1(2H)-yl)methanone] cannot be ordered by CC50: under 100 nM for the first, under 100 nM for the second.

`Nc1nc2cc(F)c(C(=O)N3CCO[C@@H]4Cc5nc(C(F)(F)F)ccc5[C@@H]43)cc2n2cncc12` (racemic) [Ff-88, Rac-(4-amino-7-fluoroimidazo[1,5-a]quinoxalin-8-yl)((4aR,9bS)-7-(trifluoromethyl)-2,3,5,9b-tetrahydropyrido[3′,2′:3,4]cyclopenta[1,2-b][1,4]oxazin-1(4aH)-yl)methanone] and `Nc1nc2cc(F)c(C(=O)N3CC[C@H]4C[C@@H]3c3ccc(C(F)(F)F)nc34)cc2n2cncc12` (racemic) [Ff-90, Rac-(4-amino-7-fluoroimidazo[1,5-a]quinoxalin-8-yl)((5R,9S)-2-(trifluoromethyl)-5,7,8,9-tetrahydro-6H-5,9-methanopyrido[3,2-c]azepin-6-yl)methanone] fall in the same range of CC50: 100 to 1000 nM for the first, 100 to 1000 nM for the second.

First: Nc1nc2cc(Cl)c(C(=O)N3CC[C@H]4C[C@@H]3c3ccc(C(F)(F)F)nc34)cc2n2cncc12 (racemic) [Ff-91, Rac-(4-amino-7-chloroimidazo[1,5-a]quinoxalin-8-yl)((5R,9S)-2-(trifluoromethyl)-5,7,8,9-tetrahydro-6H-5,9-methanopyrido[3,2-c]azepin-6-yl)methanone]
Second: C[C@H]1CCN(C(=O)c2cc3c(cc2F)nc(N)c2cncn23)[C@@H](c2ccc(C(F)(F)F)cc2)C1 (racemic) [Ff-241, Rac-(4-amino-7-fluoroimidazo[1,5-a]quinoxalin-8-yl)((2R,4S)-4-methyl-2-(4-(trifluoromethyl)phenyl)piperidin-1-yl)methanone]
The CC50 of the first is lower: under 100 nM for the first, 100 to 1000 nM for the second.

`Cc1ncc2c(N)nc3cc(F)c(C(=O)N4CCC[C@@H]5Oc6cc(C(F)(F)F)ccc6[C@@H]54)cc3n12` (racemic) [Ff-99, Rac-(4-amino-7-fluoro-1-methylimidazo[1,5-a]quinoxalin-8-yl)(7-(trifluoromethyl)-3,4,4a,9b-tetrahydrobenzofuro[3,2-b]pyridin-1(2H)-yl)methanone] and `CC1(C)C[C@@H]2Oc3cc(C(F)(F)F)ccc3[C@@H]2N(C(=O)c2cc3c(cc2F)nc(N)c2cncn23)C1` (racemic) [Ff-257, Rac-(4-amino-7-fluoroimidazo[1,5-a]quinoxalin-8-yl)((4aR,9bR)-3,3-dimethyl-7-(trifluoromethyl)-3,4,4a,9b-tetrahydrobenzofuro[3,2-b]pyridin-1(2H)-yl)methanone] cannot be ordered by CC50: under 100 nM for the first, under 100 nM for the second.

Compared with `Nc1nc2cc(F)c(C(=O)N3CCC[C@@H]4Oc5cc(F)c(F)cc5[C@@H]43)cc2n2cncc12` (racemic) [Ff-101, Rac-(4-amino-7-fluoroimidazo[1,5-a]quinoxalin-8-yl)((4aS,9bS)-7,8-difluoro-3,4,4a,9b-tetrahydrobenzofuro[3,2-b]pyridin-1(2H)-yl)methanone], `Nc1nc2cc(F)c(C(=O)N3CCC[C@@H]4Oc5cc(OC(F)F)c(F)cc5[C@@H]43)cc2n2cncc12` (racemic) [Ff-157, rac-(4-amino-7-fluoroimidazo[1,5-a]quinoxalin-8-yl)((4aS,9bS)-7-(difluoromethoxy)-8-fluoro-3,4,4a,9b-tetrahydrobenzofuro[3,2-b]pyridin-1(2H)-yl)methanone] is lower in CC50: 100 to 1000 nM for the first, under 100 nM for the second.

Compared with `Nc1nc2cc(F)c(C(=O)N3CCC[C@@H]4Oc5c(ccc(F)c5F)[C@@H]43)cc2n2cncc12` (racemic) [Ff-102, Rac-(4-amino-7-fluoroimidazo[1,5-a]quinoxalin-8-yl)((4aS,9bS)-6,7-difluoro-3,4,4a,9b-tetrahydrobenzofuro[3,2-b]pyridin-1(2H)-yl)methanone], `Nc1nc2cc(F)c(C(=O)N3CCC[C@@H]4OCc5cc(OC(F)F)ccc5[C@@H]43)cc2n2cncc12` (racemic) [Ff-287, Rac-(4-amino-7-fluoroimidazo[1,5-a]quinoxalin-8-yl)((4aS,10bS)-8-(difluoromethoxy)-2,3,4,4a,6,10b-hexahydro-1H-isochromeno[4,3-b]pyridin-1-yl)methanone] is lower in CC50: 100 to 1000 nM for the first, under 100 nM for the second.

`C[C@@H]1CC[C@@H]2Oc3cc(C(F)(F)F)ccc3[C@@H]2N1C(=O)c1cc2c(cn1)nc(N)c1cncn12` (racemic) [Ff-106, Rac-(4-aminoimidazo[1,5-a]pyrido[3,4-e]pyrazin-8-yl)((2R,4aS,9bS)-2-methyl-7-(trifluoromethyl)-3,4,4a,9b-tetrahydrobenzofuro[3,2-b]pyridin-1(2H)-yl)methanone] and `CC1(C)C[C@@H]2Oc3cc(C(F)(F)F)ccc3[C@@H]2N(C(=O)c2cc3c(cn2)nc(N)c2cncn23)C1` (racemic) [Ff-258, Rac-(4-aminoimidazo[1,5-a]pyrido[3,4-e]pyrazin-8-yl)((4aR,9bR)-3,3-dimethyl-7-(trifluoromethyl)-3,4,4a,9b-tetrahydrobenzofuro[3,2-b]pyridin-1(2H)-yl)methanone] cannot be ordered by CC50: under 100 nM for the first, under 100 nM for the second.

`Nc1nc2cc(F)c(C(=O)N3C[C@H](F)CC4Oc5cc(C(F)(F)F)ccc5[C@@H]43)cc2n2cncc12` (mixture of isomers) [Ff-112, Rac-(4-amino-7-fluoroimidazo[1,5-a]quinoxalin-8-yl)((3R,4aS,9bS)-3-fluoro-7-(trifluoromethyl)-3,4,4a,9b-tetrahydrobenzofuro[3,2-b]pyridin-1(2H)-yl)methanone] and `Nc1nc2cc(F)c(C(=O)N3C[C@H](F)CCC3c3ccc(C(F)(F)F)cn3)cc2n2cncc12` (mixture of isomers) [Ff-228, (4-amino-7-fluoroimidazo[1,5-a]quinoxalin-8-yl)((5R)-5-fluoro-2-(5-(trifluoromethyl)pyridin-2-yl)piperidin-1-yl)methanone] cannot be ordered by CC50: under 100 nM for the first, under 100 nM for the second.

First: Nc1nc2ccc(C(=O)N3CCC[C@@H]4Cc5cc(C(F)(F)F)ccc5[C@@H]43)cc2n2cncc12 (racemic) [Ff-249, Rac-(4-aminoimidazo[1,5-a]quinoxalin-8-yl)((4aR,9bR)-7-(trifluoromethyl)-2,3,4,4a,5,9b-hexahydro-1H-indeno[1,2-b]pyridin-1-yl)methanone]
Second: Nc1nc2cnc(C(=O)N3CCC[C@@H]4Cc5cc(C(F)(F)F)ccc5[C@@H]43)cc2n2cncc12 (racemic) [Ff-250, Rac-(4-aminoimidazo[1,5-a]pyrido[3,4-e]pyrazin-8-yl)((4aR,9bR)-7-(trifluoromethyl)-2,3,4,4a,5,9b-hexahydro-1H-indeno[1,2-b]pyridin-1-yl)methanone]
The CC50 of the first is higher: 100 to 1000 nM for the first, under 100 nM for the second.

Compared with `CC1(C)C[C@@H]2Oc3cc(OC(F)(F)F)ccc3[C@@H]2N(C(=O)c2cc3c(cn2)nc(N)c2cncn23)C1` (racemic) [Ff-262, Rac-(4-aminoimidazo[1,5-a]pyrido[3,4-e]pyrazin-8-yl)((4aS,9bS)-3,3-dimethyl-7-(trifluoromethoxy)-3,4,4a,9b-tetrahydrobenzofuro[3,2-b]pyridin-1(2H)-yl)methanone], `C[C@H]1OC[C@@H](N(C)C(=O)c2cc3c(cc2F)nc(N)c2cncn23)c2ccc(C(F)(F)F)cc21` (racemic) [Ff-283, Rac-4-amino-7-fluoro-N-methyl-N-((1R,4S)-1-methyl-7-(trifluoromethyl)isochroman-4-yl)imidazo[1,5-a]quinoxaline-8-carboxamide] is lower in CC50: 100 to 1000 nM for the first, under 100 nM for the second.

First: C[C@H]1OC[C@@H](N(C)C(=O)c2cc3c(cc2Cl)nc(N)c2cncn23)c2ccc(C(F)(F)F)cc21 (racemic) [Ff-284, Rac-4-amino-7-chloro-N-methyl-N-((1R,4S)-1-methyl-7-(trifluoromethyl)isochroman-4-yl)imidazo[1,5-a]quinoxaline-8-carboxamide]
Second: Nc1nc2cc(F)c(C(=O)N3[C@@H](c4ccc(C(F)(F)F)cn4)CC[C@@H]4C[C@@H]43)cc2n2cncc12 (racemic) [Ff-293, Rac-(4-amino-7-fluoroimidazo[1,5-a]quinoxalin-8-yl)((1S,3R,6R)-3-(5-(trifluoromethyl)pyridin-2-yl)-2-azabicyclo[4.1.0]heptan-2-yl)methanone]
The CC50 of the first is lower: under 100 nM for the first, 100 to 1000 nM for the second.

`Nc1nc2ccc(C(=O)N3CCC[C@@H]4OCc5cc(OC(F)F)ccc5[C@@H]43)cc2n2cncc12` (racemic) [Ff-288, Rac-(4-aminoimidazo[1,5-a]quinoxalin-8-yl)((4aS,10bS)-8-(difluoromethoxy)-2,3,4,4a,6,10b-hexahydro-1H-isochromeno[4,3-b]pyridin-1-yl)methanone] and `Nc1nc2cc(F)c(C(=O)N3CCC[C@@H]4OCc5cc(-c6ccn(C(F)(F)F)n6)ccc5[C@@H]43)cc2n2cncc12` (racemic) [Ff-294, Rac-(4-amino-7-fluoroimidazo[1,5-a]quinoxalin-8-yl)((4aS,10bS)-8-(1-(trifluoromethyl)-1H-pyrazol-3-yl)-2,3,4,4a,6,10b-hexahydro-1H-isochromeno[4,3-b]pyridin-1-yl)methanone] cannot be ordered by CC50: under 100 nM for the first, under 100 nM for the second.

`Nc1nc2cc(F)c(C(=O)N3CCC[C@@H]4OCc5cc(-c6cnn(C(F)(F)F)c6)ccc5[C@@H]43)cc2n2cncc12` (racemic) [Ff-295, Rac-(4-amino-7-fluoroimidazo[1,5-a]quinoxalin-8-yl)((4aS,10bS)-8-(1-(trifluoromethyl)-1H-pyrazol-4-yl)-2,3,4,4a,6,10b-hexahydro-1H-isochromeno[4,3-b]pyridin-1-yl)methanone] showed a CC50 of under 100 nM.
